From patent publication US20240409572A1, “COMPOUND FOR TREATING NEURODEGENERATIVE DISEASES AND ITS ISOLATION METHOD THEREOF” (SARAWAK BIODIVERSITY COUNCIL, priority 2020, published 2024)

Target: T1, recombinant human POP (Homo sapiens, UniProt P48147)
T1 construct: purchased USBiological, MA
T1 sequence (P48147 1-710): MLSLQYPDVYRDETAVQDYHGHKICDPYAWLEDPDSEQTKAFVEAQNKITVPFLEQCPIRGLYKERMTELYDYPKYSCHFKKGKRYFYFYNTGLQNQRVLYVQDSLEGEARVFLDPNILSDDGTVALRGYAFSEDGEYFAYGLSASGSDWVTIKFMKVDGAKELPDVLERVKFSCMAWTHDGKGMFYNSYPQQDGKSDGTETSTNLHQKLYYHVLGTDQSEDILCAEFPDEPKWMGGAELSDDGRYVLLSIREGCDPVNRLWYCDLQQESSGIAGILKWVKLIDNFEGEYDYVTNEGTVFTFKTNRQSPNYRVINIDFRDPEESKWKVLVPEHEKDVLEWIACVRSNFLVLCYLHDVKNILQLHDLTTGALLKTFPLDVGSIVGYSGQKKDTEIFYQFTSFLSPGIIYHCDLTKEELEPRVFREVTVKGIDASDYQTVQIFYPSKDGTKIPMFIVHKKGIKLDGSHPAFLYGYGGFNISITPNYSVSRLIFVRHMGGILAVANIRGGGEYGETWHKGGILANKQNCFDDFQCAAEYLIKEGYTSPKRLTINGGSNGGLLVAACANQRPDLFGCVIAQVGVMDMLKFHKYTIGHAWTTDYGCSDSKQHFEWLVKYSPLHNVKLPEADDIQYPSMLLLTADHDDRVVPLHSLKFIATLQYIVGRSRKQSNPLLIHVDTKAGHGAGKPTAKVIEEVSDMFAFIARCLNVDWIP
Experiment: POP enzyme inhibition colorimetric assay (recombinant human POP)
Type: biochemical
Conditions: 0.04 mg/ml; read-out: inhibition against human POP
Protocol: FIG. 3 illustrates the inhibition activity of FGS03 against Flavobacterium and recombinant human POP. FGS03 is tested at final concentrations of 0.02 mg/ml and 0.04 mg/ml respectively. Positive control is PE Inhibitor II, Calbiochem, USA. Each sample is tested in triplicate. Data represented as mean value with standard deviation, n=3.
The POP inhibitory activity of compound was evaluated using an enzyme inhibition assay. A colorimetric assay was set up using Flavobacterium and recombinant human POP enzymes. The POP enzyme solutions obtained from Flavobacterium (0.5 U mL^−1 giving 0.0416 units per well) and human (USBiological, MA with working concentration 0.006 mg/ml) were added to the 96-well plates containing sample extracts and phosphate buffer (100 mM, pH 7.0). The reaction was initiated with the addition of enzyme substrate, Z-Gly-Pro-4-nitroanilide (2 mM in 40% dioxane) and incubated at 30° C. for 15 minutes. Stopper buffer (2 M acetate buffer, pH 4.0 with 10% Triton-X) was added to stop the enzyme reaction. The released p-nitroanilide was determined colorimetrically with a plate reader at 414 nm. The inhibition activity was calculated using the formula:
[formula] • where blank=control without the inhibitor • OD=change in optical density during the assay.

inhibition at 40 µg/mL: 80%
SMILES: CCCCCCCCCCCc1cc(O)cc(O[C@H]2O[C@@H](C(=O)O)[C@@H](O)[C@H](O)[C@H]2O)c1C(=O)O [FGS03, (2R,3S,4S,5R,6R)-6-(2-carboxy-5-hydroxy-3-undecylphenoxy)-3,4,5-trihydroxytetrahydro-2H-pyran-2-carboxylic acid]
